According to patent publication US11160796B2, “Anti-androgens for the treatment of non-metastatic castration-resistant prostate cancer” (priority 2017, dated 2021):

Columns and labels:
[1] = test system: non-metastatic castration-resistant prostate cancer (NM-CRPC); experiment: Phase III study (SPARTAN, Study 1): efficacy; assay type: in vivo, human; details: for Metastasis Free Survival (MFS), median: 240 mg once daily + ADT, ITT, BICR
Description: The study consisted of a Screening Phase of up to 35 days before randomization to establish eligibility and document baseline measurements, a double-blind Treatment Phase (28-day treatment cycles; continuous dosing), and a Long-term Follow-up Phase to monitor PFS, survival status, subsequent prostate cancer therapy, PRO, and MRU. […] The randomization was stratified as follows: • PSADT: <6 months vs. >6 months; • Bone-sparing agent use: Yes vs. No; and • Loco-regional disease: N0 vs. N1 (ie, nodal disease).
All patients who were not surgically castrated received ADT continuously throughout the study. […] Systemic corticosteroids were not allowed at study entry. […] Patients randomized to either arm were to continue treatment until disease progression defined by blinded central imaging review (BICR), initiation of new treatment, unacceptable toxicity or withdrawal.
With the softgel capsules only, subjects could switch to a twice daily dosing regimen (4 tables each period) if gastrointestinal issues arose with the once daily schedule. […] For the purposes of this study, a treatment cycle consisted of 4 weeks (28 days).
The primary efficacy endpoint was metastasis-free survival (MFS), defined as the time from randomization to the time of first evidence of BICR-confirmed bone or soft tissue distant metastasis or death due to any cause, whichever occurred first. Metastasis-free survival data for subjects without metastasis or death were censored on the date of the last tumor assessment (or, if no tumor assessment was performed after the baseline visit, at the date of randomization). Censoring rules based on FDA and CHMP guidance were applied for analyses of MFS (referred to in the text as US censoring or ex-US censoring).
Patients were stratified by Prostate Specific Antigen (PSA) Doubling Time (PSADT), the use of bone-sparing agents, and locoregional disease. Patients were required to have a PSADT≤10 months and confirmation of non-metastatic disease by blinded independent central review (BICR).
The major efficacy outcome measure of the study was metastasis-free survival (MFS), defined as the time from randomization to the time of first evidence of BICR-confirmed distant metastasis, defined as new bone or soft tissue lesions or enlarged lymph nodes above the iliac bifurcation, or death due to any cause, whichever occurred first. Additional efficacy endpoints were time to metastasis (TTM), progression-free survival (PFS) which also includes locoregional progression, time to symptomatic progression, and overall survival (OS).

[2] = test system: castration-resistant LNCaP/AR-Luc xenograft model; experiment: Murine tumor (xenograft) models of CRPC; assay type: in vivo; details: for tumor cell proliferation and apoptosis in vivo: CRPC / mouse xenograft models of prostate cancer
[3] = Single-dose and repeat-dose toxicology studies in male rats
Description: Single-dose and repeat-dose toxicology studies up to 13 weeks of dosing have been conducted in male Sprague Dawley (SD) rats and male Beagle dogs (repeat-dose studies only).

CNC(=O)c1ccc(N2C(=S)N(c3cnc(C#N)c(C(F)(F)F)c3)C(=O)C23CCC3)cc1F [apalutamide, 4-[7-(6-cyano-5-trifluoromethylpyridin-3-yl)-8-oxo-6-thioxo-5,7-diazaspiro[3.4]oct-5-yl]-2-fluoro-N-methylbenzamide]
Metastasis Free Survival (MFS), median [1]: 41 months
Metastasis Free Survival (MFS), median ([1]; listed as Apalutamide): 40.5 months
decrease in the risk of symptomatic progression ([1]; compared with placebo): 55%
Progression-free Survival (PFS), median ([1]; in vivo): 40.5 months
Time to Metastasis (TTM), median ([1]; in vivo): 40.5 months
MFS HR, subgroup PSA doubling time of >6 months ([1]; non-stratified analysis): 0.30
MFS HR, subgroup PSA doubling time of months ([1]; non-stratified analysis): 0.29
MFS HR, total study population ([1]; non-stratified analysis): 0.30
decrease in the risk of distant metastasis or death ([1]; vs placebo): 72%
tumor cell proliferation and apoptosis in vivo [2]: reduce proliferation of CRPC cells as well as increase apoptosis and necrosis
tumor cell proliferation and apoptosis in vivo ([2]; listed as Apalutamide): decreased tumor cell proliferation and increased apoptosis leading to decreased tumor volume
tumor growth inhibition and tumor regression ([2]; murine tumor models of CRPC): dose-dependent tumor growth inhibition and tumor regression that were superior to bicalutamide
well tolerated dose ([3]; 13-weeks study, once daily oral gavage, male SD rats): up to 100 mg/kg/day
dose with reproductive system findings (atrophy, aspermia/hypospermia, degeneration, hyperplasia or hypertrophy) ([3]; male, Sprague Dawley, rat, in vivo): > 25 mg/kg/day
NOAEL at 13 weeks ([3]; male, Sprague-Dawley, rat, in vivo): 100 mg/kg/day
increase in cholesterol from controls ([3]; rat, in vivo, 150 mg/kg/day): greater than 200%
